One block for each compound: values may come before it.
How the values were obtained:
[1] = molecular target: 5-hydroxytryptamine receptor 4 (Cavia porcellus, UniProt O70528); test: Ability to antagonize 5-HT-evoked contractions mediated through 5-hydroxytryptamine 4 receptor activation in the guinea pig distal colon LMMP; assay type: tissue-based
[2] = molecular target: T1, 5-hydroxytryptamine receptor 1A (Homo sapiens, UniProt P08908); test: Binding affinity was determined against 5-hydroxytryptamine 1A receptor; set-up: species or system Cavia porcellus
T1 sequence (P08908 whole entry): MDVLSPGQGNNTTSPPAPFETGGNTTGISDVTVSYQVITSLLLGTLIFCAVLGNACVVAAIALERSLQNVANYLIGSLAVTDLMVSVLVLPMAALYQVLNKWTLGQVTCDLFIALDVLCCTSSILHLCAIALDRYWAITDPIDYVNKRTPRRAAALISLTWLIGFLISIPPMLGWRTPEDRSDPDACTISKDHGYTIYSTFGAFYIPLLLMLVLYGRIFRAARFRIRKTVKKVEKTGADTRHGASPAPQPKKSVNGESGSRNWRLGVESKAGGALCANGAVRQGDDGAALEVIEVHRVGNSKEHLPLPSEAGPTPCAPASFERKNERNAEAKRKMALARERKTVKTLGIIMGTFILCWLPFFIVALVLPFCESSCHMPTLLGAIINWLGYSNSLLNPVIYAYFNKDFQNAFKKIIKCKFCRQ

[3] = (§1) Binding affinity was determined against 5-hydroxytryptamine 2A receptor; set-up: species or system Cavia porcellus
[4] = molecular target: 5-hydroxytryptamine receptor 2A (Homo sapiens, UniProt P28223); test: as §1; set-up: species or system Cavia porcellus
Chain of 5-hydroxytryptamine receptor 2A (P28223 whole entry): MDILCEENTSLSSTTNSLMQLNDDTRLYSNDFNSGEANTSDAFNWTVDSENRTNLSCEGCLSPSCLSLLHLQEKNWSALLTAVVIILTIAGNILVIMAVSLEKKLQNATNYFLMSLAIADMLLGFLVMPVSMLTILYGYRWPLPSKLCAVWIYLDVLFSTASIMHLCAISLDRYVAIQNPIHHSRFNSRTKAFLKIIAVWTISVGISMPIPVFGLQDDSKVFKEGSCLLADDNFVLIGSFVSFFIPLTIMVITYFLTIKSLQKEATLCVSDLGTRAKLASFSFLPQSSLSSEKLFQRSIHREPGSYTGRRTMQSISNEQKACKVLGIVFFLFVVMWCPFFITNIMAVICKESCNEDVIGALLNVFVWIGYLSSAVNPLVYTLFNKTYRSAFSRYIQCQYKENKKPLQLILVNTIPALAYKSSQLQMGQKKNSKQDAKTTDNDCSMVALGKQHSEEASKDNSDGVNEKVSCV

D(3) dopamine receptor = D(3) dopamine receptor (Homo sapiens, UniProt P35462); test: Binding affinity was determined against Dopamine receptor D3 determined using cloned human receptors expressed in CHO cells radiolabeled with [125I]- iodosulpride; assay type: cell-based
Chain of D(3) dopamine receptor (P35462 whole entry): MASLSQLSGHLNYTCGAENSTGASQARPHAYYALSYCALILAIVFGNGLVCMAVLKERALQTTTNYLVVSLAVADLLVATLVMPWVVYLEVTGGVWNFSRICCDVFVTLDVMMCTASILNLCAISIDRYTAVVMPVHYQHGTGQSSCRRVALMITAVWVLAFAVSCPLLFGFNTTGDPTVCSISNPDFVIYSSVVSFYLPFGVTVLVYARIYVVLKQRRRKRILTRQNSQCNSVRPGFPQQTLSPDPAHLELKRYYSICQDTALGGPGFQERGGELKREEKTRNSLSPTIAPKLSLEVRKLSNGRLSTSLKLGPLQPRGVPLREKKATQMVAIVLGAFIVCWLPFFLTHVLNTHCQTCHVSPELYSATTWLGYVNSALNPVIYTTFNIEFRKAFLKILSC

Histamine H1 receptor = Histamine H1 receptor (Cavia porcellus, UniProt P31389); test: Binding affinity was determined against H1 receptor
Chain of Histamine H1 receptor (P31389 whole entry): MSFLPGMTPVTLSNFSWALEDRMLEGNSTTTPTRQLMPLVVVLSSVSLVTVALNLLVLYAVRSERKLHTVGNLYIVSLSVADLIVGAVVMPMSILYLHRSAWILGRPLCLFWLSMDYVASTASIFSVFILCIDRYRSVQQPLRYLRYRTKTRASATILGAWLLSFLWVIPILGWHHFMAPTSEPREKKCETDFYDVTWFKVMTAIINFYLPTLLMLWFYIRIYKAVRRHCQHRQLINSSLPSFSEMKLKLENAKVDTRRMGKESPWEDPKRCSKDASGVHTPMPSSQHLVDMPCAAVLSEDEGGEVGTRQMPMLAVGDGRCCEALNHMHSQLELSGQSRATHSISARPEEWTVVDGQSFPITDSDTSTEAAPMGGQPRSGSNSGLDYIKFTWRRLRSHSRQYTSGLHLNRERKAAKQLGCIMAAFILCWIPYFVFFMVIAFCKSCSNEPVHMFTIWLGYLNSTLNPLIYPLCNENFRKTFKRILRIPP

[5] = Binding affinity was determined against 5-hydroxytryptamine 1D receptor
D(2) dopamine receptor = D(2) dopamine receptor (Homo sapiens, UniProt P14416); test: Binding affinity was determined by standard competitive displacement of [125I]iodosulpride using Dopamine receptor D2 cloned human receptors expressed in CHO cells
Chain of D(2) dopamine receptor (P14416 whole entry): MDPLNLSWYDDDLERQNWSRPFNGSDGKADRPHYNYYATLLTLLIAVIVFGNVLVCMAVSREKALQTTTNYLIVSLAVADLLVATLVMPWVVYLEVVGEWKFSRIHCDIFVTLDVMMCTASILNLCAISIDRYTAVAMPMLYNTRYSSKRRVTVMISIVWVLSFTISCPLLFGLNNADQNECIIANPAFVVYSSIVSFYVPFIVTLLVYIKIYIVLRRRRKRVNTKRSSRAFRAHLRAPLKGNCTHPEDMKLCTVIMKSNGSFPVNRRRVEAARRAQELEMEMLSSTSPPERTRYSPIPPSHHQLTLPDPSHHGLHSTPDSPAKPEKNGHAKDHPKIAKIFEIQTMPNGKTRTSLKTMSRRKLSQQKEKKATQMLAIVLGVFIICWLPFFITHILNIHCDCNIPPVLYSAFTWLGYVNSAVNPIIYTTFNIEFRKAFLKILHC

Chain of 5-hydroxytryptamine receptor 4 (O70528 whole entry): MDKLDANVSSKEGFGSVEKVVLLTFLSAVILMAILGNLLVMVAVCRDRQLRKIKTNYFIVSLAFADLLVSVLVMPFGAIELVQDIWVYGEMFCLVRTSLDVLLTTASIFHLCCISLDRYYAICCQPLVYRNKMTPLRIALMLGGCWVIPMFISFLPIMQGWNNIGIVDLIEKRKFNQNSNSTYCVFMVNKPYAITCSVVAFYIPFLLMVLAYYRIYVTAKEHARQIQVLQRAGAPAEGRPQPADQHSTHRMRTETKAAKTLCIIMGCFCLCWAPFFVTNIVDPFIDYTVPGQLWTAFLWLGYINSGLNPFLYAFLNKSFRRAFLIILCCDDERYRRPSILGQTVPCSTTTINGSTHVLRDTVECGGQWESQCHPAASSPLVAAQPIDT

Structure (SMILES): CCCCN1CCC(CNC(=O)c2c[nH]c3ccccc23)CC1
IC50 [1]: 200 nM

Structure (SMILES): CCCCN1CCC(CNC(=O)c2c(OC)[nH]c3ccccc23)CC1
IC50 [1]: 79.4 nM

Structure (SMILES): CCCCN1CCC(CNC(=O)c2c3n(c4ccccc24)CCCO3)CC1 [PIBOSEROD]
Ki [2]: > 10000 nM
Log Ki [3]: > -6
Ki [4]: > 1000 nM
Ki (D(3) dopamine receptor): > 1000 nM
Ki (Histamine H1 receptor): > 1000 nM
Ki [5]: > 10000 nM
Ki (D(2) dopamine receptor): > 1000 nM

The remaining compounds from weak to strong by IC50 [1], led by results:

IC50 [1]: 15.8 nM
Structure (SMILES): CCCCN1CCC(CNC(=O)c2c3n(c4ccccc24)CCO3)CC1

IC50 [1]: 7.94 nM
Structure (SMILES): CCCCN1CCC(CNC(=O)c2c3n(c4ccccc24)CCCCO3)CC1

IC50 [1]: 0.1 nM
Structure (SMILES): CCCCN1CCC(COC(=O)c2c(OC)[nH]c3ccccc23)CC1

— ChEMBL document CHEMBL1128720, “N-[(1-butyl-4-piperidinyl)methyl]-3,4dihydro-2H-[1,3]oxazino[3,2- a]indole10-carboxamide hydrochloride: the first potent and selective 5-HT4 receptor antagonist amide with oral activity” (J Med Chem, 1995)
